Data reported in patent US20230332237A1, “Molecular Biomarkers for Predicting Patient Response to Steroid Therapy” (Florida State University Research Foundation, Inc., priority 2022, published 2023).

What was measured:
[1] = system: steroid sensitive keloid fibroblasts; assay: RNA-seq differential gene expression in steroid sensitive keloid fibroblasts following TA treatment; format: cell-based, human; conditions: 10 μM TA for 96 hrs vs DMSO, Padj≤0.05
Excerpt: (§1) Culture of keloid-derived primary fibroblasts. Surgically excised keloid and normal skin explants were obtained from patients under Florida State University institutional review board guidelines (Approved by the Human Subjects Committee (HSC) of the Florida State University Institutional Review Board; HSC numbers: 2016.19175 and 2017.22173). The explants were cut into small pieces, digested with trypsin, and washed with and cultured in Dulbecco's Modified Eagle Medium containing 10% fetal bovine serum and antibiotic/antimycotic solution maintained at 37.8° C. (98.68° F.) and 5% carbon dioxide. Outgrowth of only primary dermal fibroblasts occurred under our culture conditions, and these were recovered by trypsinization for use in experiments at low passage. The keloid fibroblasts are morphologically identical to commercially obtained normal primary human dermal fibroblasts (HDF; Cell Applications, Inc., San Diego, CA) used as our normal controls. […]
(§2) RNA extraction. […] The quality and quantity of each RNA sample was measured by Tapestation (Agilent). […]
(§3) RNA-seq. […] The RNA-seq libraries were sequenced on a NovaSeq 6000 sequencer (Illumina) to obtain 2×100 or 2×150-base reads. […] FASTQC was used to filter out reads of low to moderate quality. Paired-end reads were mapped to the GRCh38 reference genome using Salmon (28). The average mapped reads were 323M reads per sample and average mapped rate was 94.8%. […]

[2] = system: steroid resistant keloid fibroblasts; assay: RNA-seq differential gene expression in steroid resistant keloid fibroblasts following TA treatment; format: cell-based, human; conditions: 10 μM TA for 96 hrs vs DMSO, Padj≤0.05
Excerpt: as §1, §2, §3

IGFBP2 = conditions: treatment with prednisolone; literature refs 23, 24; cited from earlier work
IGF1 = conditions: treatment with prednisolone; literature refs 23, 24; cited from earlier work
IGFBP1 = conditions: treatment with prednisolone; literature refs 23, 24; cited from earlier work

SMILES	genes downregulated after TA treatment [1]	genes upregulated after TA treatment [1]	genes downregulated after TA treatment [2]	genes upregulated after TA treatment [2]	IGFBP2 (IGFBP2)	serum IGF1 concentration (IGF1)	IGFBP1 (IGFBP1)
CC1(C)O[C@@H]2C[C@H]3[C@@H]4CCC5=CC(=O)C=C[C@]5(C)[C@@]4(F)[C@@H](O)C[C@]3(C)[C@]2(C(=O)CO)O1 [TA, Triamcinolone Acetonide]	521	526	106	131			
C[C@]12C=CC(=O)C=C1CC[C@@H]1[C@@H]2[C@@H](O)C[C@@]2(C)[C@H]1CC[C@]2(O)C(=O)CO [prednisolone]					reduces	increases	reduces
